# ChEMBL document CHEMBL1938322, “Towards a modern definition of vitamin E-evidence for a quinone hypothesis” (Bioorg Med Chem Lett, 2012)
# Tests used:
# [1] = Growth inhibition of human FRDA primary patient fibroblasts after 48 hrs by calcein-AM-based cell viability assay; design: species or system Fibroblast; settings: for GI50 at 48 h: FRDA primary patient fibroblasts
# Fibroblast [2] = assay: Cytoprotective activity against BSO-induced human FRDA primary patient fibroblasts compound pretreated 12 hrs prior to BSO-induction measured after 48 hrs by calcein-AM-based cell viability assay; type: functional
# [3] = Therapeutic index, ratio of LC50 to GI50 for human FRDA primary patient fibroblasts; type: cell-based, Fibroblast; settings: for selectivity ratio: FRDA primary patient fibroblasts, read-out: TI
# Fibroblast [4] = assay: Ratio of CoQ10 EC50 to compound EC50 for cytoprotection against BSO-induced human FRDA primary patient fibroblasts; type: functional
# [5] = Half life in dog plasma at 25 mg/kg, po by HPLC analysis; type: ADME, organism-based, Canis lupus familiaris; design: dose 25 mg/kg, route oral
# [6] = Tmax in rat plasma at 100 mg/kg, po by HPLC analysis; type: ADME, organism-based; design: dose 100 mg/kg, route oral
# [7] = AUC (0 to infinity) in mouse plasma at 5 mg/kg, iv by HPLC analysis; type: ADME, organism-based; design: time infinity, dose 5 mg/kg, route intravenous
# [8] = AUC (0 to infinity) in mouse plasma at 10 mg/kg, po by HPLC analysis; type: ADME, organism-based; design: time infinity, dose 10 mg/kg, route oral
# [9] = Growth inhibition of human primary fibroblasts after 48 hrs by calcein-AM-based cell viability assay; design: species or system Fibroblast
# [10] = Half life in mouse plasma at 5 mg/kg, iv by HPLC analysis; type: ADME, organism-based; design: dose 5 mg/kg, route intravenous
# [11] = AUC (0 to infinity) in dog plasma at 25 mg/kg, po by HPLC analysis; type: ADME, organism-based, Canis lupus familiaris; design: time infinity, dose 25 mg/kg, route oral
# [12] = Solubility of the compound; type: physicochemical
# [13] = Cmax in mouse plasma at 10 mg/kg, po by HPLC analysis; type: ADME, organism-based; design: dose 10 mg/kg, route oral
# [14] = AUCt in mouse plasma at 10 mg/kg, po by HPLC analysis; type: ADME, organism-based; design: dose 10 mg/kg, route oral
# Salmonella typhimurium = assay: Mutagenic activity in Salmonella Typhimurium by Ames test; type: toxicity, organism-based; settings: salmonella enterica subsp. enterica serovar typhimurium
# Rattus norvegicus [15] = organism: Rattus norvegicus; assay: Prolongation of partial thromboplastin time in female Wistar rat; type: ADME, organism-based; settings: in vivo
# [16] = Cmax in dog plasma at 25 mg/kg, po by HPLC analysis; type: ADME, organism-based, Canis lupus familiaris; design: dose 25 mg/kg, route oral
# Cytochrome P450 2D6 = Cytochrome P450 2D6 (Homo sapiens, UniProt P10635); assay: Inhibition of CYP2D6 at 10 uM; type: ADME
# Cytochrome P450 2D6, sequence (P10635 whole entry): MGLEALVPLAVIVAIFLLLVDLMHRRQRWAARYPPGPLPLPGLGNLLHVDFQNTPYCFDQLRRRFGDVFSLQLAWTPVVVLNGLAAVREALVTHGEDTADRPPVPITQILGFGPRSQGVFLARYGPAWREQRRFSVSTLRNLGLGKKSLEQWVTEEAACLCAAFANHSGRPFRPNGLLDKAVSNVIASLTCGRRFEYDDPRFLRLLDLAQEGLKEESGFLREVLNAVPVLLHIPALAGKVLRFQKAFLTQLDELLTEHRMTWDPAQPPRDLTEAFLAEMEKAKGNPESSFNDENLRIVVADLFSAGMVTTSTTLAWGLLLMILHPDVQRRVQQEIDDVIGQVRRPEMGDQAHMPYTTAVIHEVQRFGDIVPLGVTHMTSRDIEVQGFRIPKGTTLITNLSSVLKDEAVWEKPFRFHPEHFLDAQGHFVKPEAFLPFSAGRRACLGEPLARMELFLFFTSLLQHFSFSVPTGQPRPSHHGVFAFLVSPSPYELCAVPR
# [17] = Tmax in mouse plasma at 10 mg/kg, po by HPLC analysis; type: ADME, organism-based; design: dose 10 mg/kg, route oral
# [18] = Clearance in mouse plasma at 5 mg/kg, iv by HPLC analysis; type: ADME, organism-based; design: dose 5 mg/kg, route intravenous
# [19] = Oral bioavailability in mouse plasma at 10 mg/kg by HPLC analysis; type: ADME, organism-based
# [20] = Volume of distribution in mouse plasma at 5 mg/kg, iv by HPLC analysis; type: ADME, organism-based; design: dose 5 mg/kg, route intravenous
# Fibroblast [21] = assay: Ratio of alpha-tocopherol EC50 to compound EC50 for cytoprotection against BSO-induced human FRDA primary patient fibroblasts; type: functional
# [22] = Tmax in dog plasma at 25 mg/kg, po by HPLC analysis; type: ADME, organism-based, Canis lupus familiaris; design: dose 25 mg/kg, route oral
# CHO = assay: Induction of micronucleation in CHO cells; type: cell-based, Cricetulus griseus; settings: chinese hamster
# Rattus norvegicus [23] = assay: Toxicity in Wistar rat assessed as changes in food intake up to 2000 mg/kg, qd for 14 days; type: organism-based; design: dose 2000 mg/kg; settings: in vivo, 336 h
# Cytochrome P450 1A2 = biological target: T1, Cytochrome P450 1A2 (Homo sapiens, UniProt P05177); assay: Inhibition of CYP1A2 at 10 uM; type: ADME
# T1 sequence (P05177 whole entry): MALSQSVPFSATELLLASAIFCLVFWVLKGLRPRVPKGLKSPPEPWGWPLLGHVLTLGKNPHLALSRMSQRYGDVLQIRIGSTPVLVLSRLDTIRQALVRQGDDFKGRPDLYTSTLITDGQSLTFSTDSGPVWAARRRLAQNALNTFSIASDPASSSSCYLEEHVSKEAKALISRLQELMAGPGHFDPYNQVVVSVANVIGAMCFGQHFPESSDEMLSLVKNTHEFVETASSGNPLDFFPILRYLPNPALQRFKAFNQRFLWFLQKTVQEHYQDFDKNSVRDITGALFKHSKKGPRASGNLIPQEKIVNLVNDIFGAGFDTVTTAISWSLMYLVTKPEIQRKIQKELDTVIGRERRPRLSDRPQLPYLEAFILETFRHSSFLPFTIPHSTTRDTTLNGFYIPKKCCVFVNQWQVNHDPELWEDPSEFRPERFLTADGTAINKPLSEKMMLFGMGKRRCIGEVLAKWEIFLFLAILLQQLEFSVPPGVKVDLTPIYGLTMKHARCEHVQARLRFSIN
# [24] = Half life in mouse plasma at 10 mg/kg, po by HPLC analysis; type: ADME, organism-based; design: dose 10 mg/kg, route oral
# [25] = AUCt in rat plasma at 100 mg/kg, po by HPLC analysis; type: ADME, organism-based; design: dose 100 mg/kg, route oral
# Rattus norvegicus [26] = assay: Toxicity in Wistar rat assessed as changes in body weight up to 2000 mg/kg, qd for 14 days; type: organism-based; design: dose 2000 mg/kg; settings: in vivo, 336 h
# Fibroblast [27] = assay: Ratio of idebenone EC50 to compound EC50 for cytoprotection against BSO-induced human FRDA primary patient fibroblasts; type: functional
# [28] = AUCt in dog plasma at 25 mg/kg, po by HPLC analysis; type: ADME, organism-based, Canis lupus familiaris; design: dose 25 mg/kg, route oral
# [29] = AUC (0 to infinity) in rat plasma at 100 mg/kg, po by HPLC analysis; type: ADME, organism-based; design: time infinity, dose 100 mg/kg, route oral
# Rattus norvegicus [30] = organism: Rattus norvegicus; assay: Prolongation of partial thromboplastin time in male Wistar rat; type: ADME, organism-based; settings: in vivo
# Cytochrome P450 2C19 = Cytochrome P450 2C19 (Homo sapiens, UniProt P33261); assay: Inhibition of CYP2C19 at 10 uM; type: ADME
# Cytochrome P450 2C19, sequence (P33261 whole entry): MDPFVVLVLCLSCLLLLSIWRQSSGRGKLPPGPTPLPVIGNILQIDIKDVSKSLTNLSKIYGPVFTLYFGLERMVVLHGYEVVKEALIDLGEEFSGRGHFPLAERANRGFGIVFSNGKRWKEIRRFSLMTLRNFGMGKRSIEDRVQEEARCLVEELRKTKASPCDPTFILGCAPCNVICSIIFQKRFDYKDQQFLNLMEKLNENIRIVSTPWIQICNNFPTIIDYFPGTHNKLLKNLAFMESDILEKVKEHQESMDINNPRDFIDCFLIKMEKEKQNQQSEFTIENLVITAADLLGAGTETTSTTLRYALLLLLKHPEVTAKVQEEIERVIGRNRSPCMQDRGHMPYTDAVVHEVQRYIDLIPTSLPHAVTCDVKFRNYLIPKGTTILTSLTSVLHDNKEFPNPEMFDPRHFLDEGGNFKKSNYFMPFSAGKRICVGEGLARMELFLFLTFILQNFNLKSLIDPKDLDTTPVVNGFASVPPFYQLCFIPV
# Cytochrome P450 2C9 = Cytochrome P450 2C9 (Homo sapiens, UniProt P11712); assay: Inhibition of CYP2C9 at 10 uM; type: ADME
# Cytochrome P450 2C9, sequence (P11712 whole entry): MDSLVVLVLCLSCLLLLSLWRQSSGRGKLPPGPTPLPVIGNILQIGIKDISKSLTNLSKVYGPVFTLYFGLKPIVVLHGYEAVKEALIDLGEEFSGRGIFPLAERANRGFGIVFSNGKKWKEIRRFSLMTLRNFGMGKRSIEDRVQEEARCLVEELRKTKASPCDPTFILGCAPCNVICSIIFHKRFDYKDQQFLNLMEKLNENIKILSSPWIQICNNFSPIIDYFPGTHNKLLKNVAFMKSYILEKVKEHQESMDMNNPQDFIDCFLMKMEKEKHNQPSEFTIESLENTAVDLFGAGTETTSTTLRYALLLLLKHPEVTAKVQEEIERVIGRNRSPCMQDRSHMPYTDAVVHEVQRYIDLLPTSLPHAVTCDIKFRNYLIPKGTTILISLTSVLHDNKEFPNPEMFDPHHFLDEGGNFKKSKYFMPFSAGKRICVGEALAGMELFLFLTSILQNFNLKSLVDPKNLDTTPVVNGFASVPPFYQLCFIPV
# Rattus norvegicus [31] = assay: Toxicity in Wistar rat assessed as changes in water intake up to 2000 mg/kg, qd for 14 days; type: organism-based; design: dose 2000 mg/kg; settings: in vivo, 336 h
# [32] = Cmax in rat plasma at 100 mg/kg, po by HPLC analysis; type: ADME, organism-based; design: dose 100 mg/kg, route oral
# [33] = AUCt in mouse plasma at 5 mg/kg, iv by HPLC analysis; type: ADME, organism-based; design: dose 5 mg/kg, route intravenous
# Cytochrome P450 3A4 = Cytochrome P450 3A4 (Homo sapiens, UniProt P08684); assay: Inhibition of […] at 10 uM; type: ADME
# Cytochrome P450 3A4, sequence (P08684 whole entry): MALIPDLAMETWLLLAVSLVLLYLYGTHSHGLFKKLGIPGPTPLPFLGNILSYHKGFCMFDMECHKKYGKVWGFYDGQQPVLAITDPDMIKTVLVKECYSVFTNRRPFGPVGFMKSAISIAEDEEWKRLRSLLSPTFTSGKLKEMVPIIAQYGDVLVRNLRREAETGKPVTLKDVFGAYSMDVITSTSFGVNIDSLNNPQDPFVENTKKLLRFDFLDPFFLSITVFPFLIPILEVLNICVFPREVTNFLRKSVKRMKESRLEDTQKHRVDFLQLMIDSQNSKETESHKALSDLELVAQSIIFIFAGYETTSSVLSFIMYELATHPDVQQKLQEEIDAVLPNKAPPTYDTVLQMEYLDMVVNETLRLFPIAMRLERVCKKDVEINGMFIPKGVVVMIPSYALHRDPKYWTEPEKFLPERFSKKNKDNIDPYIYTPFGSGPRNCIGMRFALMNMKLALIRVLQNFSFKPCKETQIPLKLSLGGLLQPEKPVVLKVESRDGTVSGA
# [34] = Half life in rat plasma at 100 mg/kg, po by HPLC analysis; type: ADME, organism-based; design: dose 100 mg/kg, route oral
compound,measurement,setting,value
COC1=C(OC)C(=O)C(C/C=C(\C)CC/C=C(\C)CC/C=C(\C)CC/C=C(\C)CC/C=C(\C)CC/C=C(\C)CC/C=C(\C)CC/C=C(\C)CC/C=C(\C)CCC=C(C)C)=C(C)C1=O [UBIDECARENONE],GI50 at 48 h,[1],220 µM
VITAMIN E,GI50,"[1]; fibroblast, 48 h",≥ 300 µM
same,EC50,Fibroblast [2]; fibroblast,0.234 µM
same,TI,[3]; fibroblast,>= 1282
COC1=C(OC)C(=O)C(CCCCCCCCCCO)=C(C)C1=O [IDEBENONE],GI50 at 48 h,[1],98 µM
same,EC50,"Fibroblast [2]; Homo sapiens, Fibroblast",0.592 µM
same,selectivity ratio,[3],165
CC1=C(C)C(=O)C(CC[C@](C)(O)CCC[C@H](C)CCC[C@H](C)CCCC(C)C)=C(C)C1=O,Ratio EC50,Fibroblast [4],200
same,half-life,[5],23.7 h
same,Tmax,[6],4 h
same,AUC(0-inf),[7],4240 ng·h/mL
same,AUC(0-inf),[8],2070 ng·h/mL
same,GI50 at 48 h,[9],≥ 300 µM
same,half-life,[10],16.2 h
same,AUC(0-inf),[11],16800 ng·h/mL
same,solubility,[12],10 µM
same,Cmax,[13],519 ng/mL
same,AUC(0-t),[14],1980 ng·h/mL
same,Activity,Salmonella typhimurium,Non-toxic
same,Activity,Rattus norvegicus [15],Dose-dependent effect
same,Cmax,[16],2370 ng/mL
same,inhibition (INH),Cytochrome P450 2D6,Not Active
same,Tmax,[17],1 h
same,clearance,[18],20 mL/min/kg
same,bioavailability,[19],24%
same,Vd,[20],27.6 L/kg
same,Ratio EC50,Fibroblast [21],7
same,Tmax,[22],2 h
same,Activity,CHO,Non-toxic
same,Activity,Rattus norvegicus [23],Non-toxic
same,inhibition (INH),Cytochrome P450 1A2,Not Active
same,half-life,[24],5.8 h
same,AUC(0-t),[25],26400 ng·h/mL
same,Activity,Rattus norvegicus [26],Non-toxic
same,Ratio EC50,Fibroblast [27],35
same,AUC(0-t),[28],14200 ng·h/mL
same,AUC(0-inf),[29],27900 ng·h/mL
same,Activity,Rattus norvegicus [30],Dose-dependent effect
same,inhibition (INH),Cytochrome P450 2C19,Not Active
same,inhibition (INH),Cytochrome P450 2C9,Not Active
same,Activity,Rattus norvegicus [31],Non-toxic
same,Cmax,[32],3010 ng/mL
same,AUC(0-t),[33],3980 ng·h/mL
same,GI50 at 48 h,[1],≥ 300 µM
same,inhibition (INH),Cytochrome P450 3A4,Not Active
same,Activity,Fibroblast [2],Dose-dependent effect
same,EC50,"Fibroblast [2]; Homo sapiens, Fibroblast",0.036 µM
same,half-life,[34],16.6 h
same,selectivity ratio,[3],≥ 8330
